Results from PubChem BioAssay (NCI).
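Five compound concentrations were applied to cells in 96-well plates for 48 hours; endpoints were derived by simple linear interpolation of the resulting dose-response curve. TGI is the concentration that stops growth completely.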

Key:
Experiment in all cases: DTP human tumour cell line panel, 48 h
[1] = tested on: ACHN renal
[2] = tested on: EKVX NSCLC
[3] = tested on: LOX IMVI melanoma
[4] = tested on: UO-31 renal
[5] = tested on: HCT-116 colon
[6] = tested on: CAKI-1 renal
[7] = tested on: HOP-62 NSCLC
[8] = tested on: SK-MEL-28 melanoma
[9] = tested on: UACC-62 melanoma
[10] = tested on: RXF 393 renal
[11] = tested on: A549 NSCLC
[12] = tested on: M14 melanoma
[13] = tested on: MDA-N
[14] = tested on: SF-539 CNS
[15] = tested on: NCI-H23 lung
[16] = tested on: OVCAR-4 ovarian
[17] = tested on: SW-620 colon
[18] = tested on: HCC-2998 colon
[19] = tested on: HS 578T breast
[20] = tested on: SNB-75 CNS
[21] = tested on: BT-549 breast
[22] = tested on: SK-MEL-2 melanoma
[23] = tested on: KM12 colon
[24] = tested on: MOLT-4 leukemia
[25] = tested on: NCI-H522 lung
[26] = tested on: CCRF-CEM leukemia
[27] = tested on: 786-0 renal
[28] = tested on: MDA-MB-231 breast
[29] = tested on: TK-10 renal
[30] = tested on: COLO 205 colon
[31] = tested on: K-562 leukemia
[32] = tested on: MCF7 breast
[33] = tested on: SK-MEL-5 melanoma
[34] = tested on: A498 renal
[35] = tested on: MDA-MB-435
[36] = tested on: HT29 colon
[37] = tested on: IGROV1 ovarian
[38] = tested on: NCI-H460 lung
[39] = tested on: SK-OV-3 ovarian
[40] = tested on: HL-60(TB) leukemia
[41] = tested on: NCI-H226 lung
[42] = tested on: UACC-257 melanoma
[43] = tested on: MALME-3M melanoma
[44] = tested on: U251 CNS
[45] = tested on: SN12C renal
[46] = tested on: SF-268 CNS
[47] = tested on: HOP-92 NSCLC
[48] = tested on: DU-145 prostate
[49] = tested on: SF-295 CNS
[50] = tested on: SR leukemia
[51] = tested on: PC-3 prostate
[52] = tested on: OVCAR-3 ovarian
[53] = tested on: T-47D breast
[54] = tested on: RPMI-8226 leukemia
[55] = tested on: OVCAR-5 ovarian
[56] = tested on: NCI/ADR-RES ovarian
[57] = tested on: HCT-15 colon
[58] = tested on: SNB-19 CNS
[59] = tested on: OVCAR-8 ovarian

In the case of `COc1ccc(/C=C/C(=O)Oc2ccccc2OC)cc1`, the TGI [1] is reported as > 59.4 µM, the TGI [2] is reported as > 100 µM and the TGI [3] is reported as > 70.7 µM. The TGI [4] was > 100 µM, the TGI [5] was 9.55 µM and the TGI [6] was > 91.1 µM. The TGI [7] was > 62.4 µM, the TGI [8] was > 100 µM and the TGI [9] was 97.9 µM. The TGI [10] was 99.8 µM, the TGI [11] was > 100 µM and the TGI [12] was > 100 µM. For the same compound, the TGI [13] was > 100 µM, the TGI [14] was > 100 µM and the TGI [15] was > 100 µM. For the same compound, the TGI [16] was > 60.7 µM, the TGI [17] was > 100 µM and the TGI [18] was 43.3 µM. For the same compound, the TGI [19] was > 89.6 µM, the TGI [20] was > 74.1 µM and the TGI [21] was > 100 µM. The TGI [22] was > 95.3 µM, the TGI [23] was 31.3 µM and the TGI [24] was 3.44 µM. For the same compound, the TGI [25] was > 72 µM, the TGI [26] was 10.5 µM and the TGI [27] was > 67 µM. For the same compound, the TGI [28] was 18 µM, the TGI [29] was > 100 µM and the TGI [30] was 21.2 µM. For the same compound, the TGI [31] was > 100 µM, the TGI [32] was > 100 µM and the TGI [33] was > 100 µM. The TGI [34] was > 100 µM, the TGI [35] was > 80.5 µM and the TGI [36] was > 59 µM. The TGI [37] was > 51.2 µM, the TGI [38] was > 100 µM and the TGI [39] was > 100 µM. For the same compound, the TGI [40] was > 32.5 µM, the TGI [41] was > 100 µM and the TGI [42] was > 100 µM. For the same compound, the TGI [43] was > 100 µM, the TGI [44] was > 100 µM and the TGI [45] was 58.2 µM. For the same compound, the TGI [46] was 4.71 µM, the TGI [47] was 97.7 µM and the TGI [48] was > 100 µM. For the same compound, the TGI [49] was 10.7 µM, the TGI [50] was 32.3 µM and the TGI [51] was > 100 µM. The TGI [52] was > 100 µM, the TGI [53] was > 92.2 µM and the TGI [54] was 5.22 µM. For the same compound, the TGI [55] was 98.2 µM, the TGI [56] was > 68.3 µM and the TGI [57] was 37 µM. The TGI [58] was > 100 µM and the TGI [59] was > 71.9 µM.

With `Cc1cc2nnc(C(N)=O)c(N)c2cc1C` the TGI [1] was > 100 µM, the TGI [2] was > 100 µM and the TGI [3] was > 100 µM. The TGI [4] was > 100 µM, the TGI [5] was > 100 µM and the TGI [6] was > 100 µM. The TGI [7] was > 100 µM, the TGI [9] was > 100 µM and the TGI [11] was > 100 µM. For the same compound, the TGI [12] was > 100 µM, the TGI [13] was > 100 µM and the TGI [14] was > 100 µM. The TGI [15] was > 100 µM, the TGI [16] was > 100 µM and the TGI [17] was > 100 µM. For the same compound, the TGI [18] was > 100 µM, the TGI [19] was > 100 µM and the TGI [20] was 39.6 µM. The TGI [21] was > 100 µM, the TGI [22] was > 100 µM and the TGI [23] was > 100 µM. The TGI [24] was > 100 µM, the TGI [25] was > 100 µM and the TGI [26] was > 100 µM. The TGI [27] was 68.3 µM, the TGI [28] was > 100 µM and the TGI [29] was > 100 µM. For the same compound, the TGI [30] was > 100 µM, the TGI [31] was > 100 µM and the TGI [32] was > 100 µM. For the same compound, the TGI [33] was > 100 µM, the TGI [34] was > 100 µM and the TGI [35] was > 100 µM. For the same compound, the TGI [36] was > 100 µM, the TGI [37] was > 100 µM and the TGI [38] was > 100 µM. For the same compound, the TGI [39] was > 100 µM, the TGI [40] was > 100 µM and the TGI [41] was > 100 µM. For the same compound, the TGI [42] was > 100 µM, the TGI [43] was > 100 µM and the TGI [44] was > 100 µM. The TGI [45] was > 100 µM, the TGI [46] was > 100 µM and the TGI [47] was > 100 µM. For the same compound, the TGI [48] was > 100 µM, the TGI [49] was > 100 µM and the TGI [50] was > 100 µM. For the same compound, the TGI [51] was > 100 µM, the TGI [52] was > 100 µM and the TGI [53] was > 100 µM. For the same compound, the TGI [54] was > 100 µM, the TGI [55] was > 100 µM and the TGI [56] was > 100 µM. For the same compound, the TGI [57] was > 100 µM, the TGI [58] was > 100 µM and the TGI [59] was > 100 µM.

For `C=CC[C@]1(C2=NC(C)(C)CO2)c2ccccc2-c2ccccc2[C@H]1C(C)=O`, the TGI [1] was > 45.9 µM, the TGI [2] was 40.6 µM and the TGI [3] was 25.8 µM. For the same compound, the TGI [4] was 28 µM, the TGI [5] was 20.2 µM and the TGI [6] was > 55 µM. For the same compound, the TGI [7] was 32.7 µM, the TGI [8] was > 54.5 µM and the TGI [9] was 19.2 µM. The TGI [10] was 15.8 µM, the TGI [11] was 36.8 µM and the TGI [12] was 21.7 µM. The TGI [13] was 8.45 µM, the TGI [14] was 25.1 µM and the TGI [15] was > 45.3 µM. The TGI [16] was > 69 µM, the TGI [17] was 34.4 µM and the TGI [18] was 20.7 µM. For the same compound, the TGI [19] was 25.1 µM, the TGI [20] was 46.2 µM and the TGI [21] was 37.1 µM. For the same compound, the TGI [22] was 15.4 µM, the TGI [23] was 38.6 µM and the TGI [24] was 50 µM. For the same compound, the TGI [25] was 9.45 µM, the TGI [26] was 37.2 µM and the TGI [27] was 24.9 µM. The TGI [28] was 30 µM, the TGI [29] was 34.4 µM and the TGI [30] was 15 µM. It also gave a TGI [31] of 29.8 µM, a TGI [32] of 24.8 µM and a TGI [33] of 12.7 µM. The TGI [34] was 21.1 µM, the TGI [35] was 14.7 µM and the TGI [36] was 17.3 µM. For the same compound, the TGI [37] was > 48.6 µM, the TGI [38] was 19.3 µM and the TGI [39] was > 54.9 µM. For the same compound, the TGI [40] was 15.8 µM, the TGI [41] was 30 µM and the TGI [42] was 24 µM. The TGI [43] was 21 µM, the TGI [44] was 21.6 µM and the TGI [45] was 30.8 µM. For the same compound, the TGI [46] was 29.3 µM, the TGI [47] was 39.8 µM and the TGI [48] was 29.6 µM. For the same compound, the TGI [49] was 19.1 µM, the TGI [50] was 14 µM and the TGI [51] was 27.7 µM. The TGI [52] was 9.08 µM, the TGI [53] was > 69.5 µM and the TGI [54] was 33.5 µM. For the same compound, the TGI [55] was 51 µM, the TGI [56] was 22.7 µM and the TGI [57] was 26.4 µM. The TGI [58] was 34.7 µM and the TGI [59] was > 52.8 µM.
